# From ChEMBL document CHEMBL5678814, “Novel Mps1 Kinase Inhibitors with Potent Antitumor Activity” (Mol Cancer Ther, 2016)
# How the values were obtained:
# [1] = tested on: NCI-H661; assay: Antiproliferative activity against human NCI-H661 cells assessed as cell growth inhibition incubated for 96 hrs by MTS assay; type: functional, cell-based; conditions: NCI-H661, 96 h
# [2] = tested on: A673; assay: Antiproliferative activity against human A673 cells assessed as cell growth inhibition incubated for 96 hrs by MTS assay; type: functional, cell-based; conditions: A673, 96 h
# [3] = tested on: NCI-H1373; assay: Antiproliferative activity against human NCI-H1373 cells assessed as cell growth inhibition incubated for 96 hrs by crystal violet staining; conditions: NCI-H1373, 96 h
# [4] = tested on: HT-29; assay: Antiproliferative activity against human HT-29 cells assessed as cell growth inhibition incubated for 96 hrs by crystal violet staining; conditions: HT-29, 96 h
# [5] = tested on: OCI-LY19; assay: Antiproliferative activity against human OCILY19 cells assessed as cell growth inhibition incubated for 96 hrs by MTS assay; type: functional, cell-based; conditions: OCI-LY19, 96 h
# [6] = tested on: Calu-6; assay: Antiproliferative activity against human Calu-6 cells assessed as cell growth inhibition incubated for 96 hrs by crystal violet staining; conditions: Calu-6, 96 h
# [7] = tested on: RPMI-7951; assay: Antiproliferative activity against human RPMI-7951 cells assessed as cell growth inhibition incubated for 96 hrs by crystal violet staining; conditions: RPMI-7951, 96 h
# [8] = tested on: COLO-829; assay: Antiproliferative activity against human COLO-829 cells assessed as cell growth inhibition incubated for 96 hrs by crystal violet staining; conditions: COLO-829, 96 h
# [9] = tested on: RD; assay: Antiproliferative activity against human RD cells assessed as cell growth inhibition incubated for 96 hrs by MTS assay; type: functional, cell-based
compound,measurement,setting,value
COc1cc(S(C)(=O)=O)ccc1Nc1nc2ccc(-c3ccc(NC(=O)[C@H](C)c4ccc(F)cc4)cc3)cn2n1 [BAY-1161909],IC50,[1],260 nM
same,IC50,[2],93 nM
same,IC50,[3],190 nM
same,IC50,[4],100 nM
same,IC50,[5],61 nM
same,IC50,[6],> 3000 nM
same,IC50,[7],280 nM
same,IC50,[8],300 nM
same,IC50,[9],260 nM
